Read-outs that look alike come from different tables or passages of the source.
Target: RET G810R (Homo sapiens (Human), UniProt P07949, G810R)
Experiment: HTRF KinEASE-TK kinase activity test, RET G810R
Conditions: for inhibitory activity against RET G810R relative to that of selpercatinib (LOXO-292): fold versus selpercatinib (LOXO-292)
[1] = read-out: RET G810R IC50, HTRF kinase assay

RET G810R, sequence (P07949 29-1114 G810R): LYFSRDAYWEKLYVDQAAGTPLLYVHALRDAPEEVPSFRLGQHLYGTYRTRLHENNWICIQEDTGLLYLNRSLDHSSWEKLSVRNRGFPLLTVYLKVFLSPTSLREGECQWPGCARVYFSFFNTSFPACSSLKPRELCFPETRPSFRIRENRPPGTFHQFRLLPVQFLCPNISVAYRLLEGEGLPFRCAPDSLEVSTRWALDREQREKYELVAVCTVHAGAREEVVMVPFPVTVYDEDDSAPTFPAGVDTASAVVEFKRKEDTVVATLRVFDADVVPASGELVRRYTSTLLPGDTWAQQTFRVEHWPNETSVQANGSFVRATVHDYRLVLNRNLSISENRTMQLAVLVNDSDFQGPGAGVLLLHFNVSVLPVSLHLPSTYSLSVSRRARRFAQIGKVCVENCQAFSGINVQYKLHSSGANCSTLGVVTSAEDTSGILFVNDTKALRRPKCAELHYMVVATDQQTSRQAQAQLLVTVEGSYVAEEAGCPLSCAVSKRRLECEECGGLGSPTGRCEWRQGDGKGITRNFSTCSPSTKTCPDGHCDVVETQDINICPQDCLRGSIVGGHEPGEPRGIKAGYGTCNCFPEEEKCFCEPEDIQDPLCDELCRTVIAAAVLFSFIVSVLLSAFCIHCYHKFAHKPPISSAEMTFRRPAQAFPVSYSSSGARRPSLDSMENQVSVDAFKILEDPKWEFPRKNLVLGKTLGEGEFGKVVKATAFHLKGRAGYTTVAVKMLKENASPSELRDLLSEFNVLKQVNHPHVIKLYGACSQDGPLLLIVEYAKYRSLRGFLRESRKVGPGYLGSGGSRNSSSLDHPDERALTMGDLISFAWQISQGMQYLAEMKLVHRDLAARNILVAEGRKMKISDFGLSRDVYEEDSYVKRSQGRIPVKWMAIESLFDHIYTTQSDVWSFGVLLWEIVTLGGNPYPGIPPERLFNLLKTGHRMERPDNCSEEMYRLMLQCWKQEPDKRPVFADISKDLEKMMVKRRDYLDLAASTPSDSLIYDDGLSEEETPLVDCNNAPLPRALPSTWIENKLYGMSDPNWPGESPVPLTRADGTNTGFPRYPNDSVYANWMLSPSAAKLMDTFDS

SMILES: O=C(N[C@H]1CCN(c2ccc(-c3cc(OCC(F)F)cn4nc5[nH]ncc5c34)cn2)C[C@H]1O)c1c(F)cccc1F [Compound 268, N-((3R,4S)-1-(5-(6-(2,2-difluoroethoxy)-1H-pyrazolo[3′,4′:3,4]pyrazolo[1,5-α]pyridin-4-yl)pyridin-2-yl)-3-hydroxypiperidin-4-yl)-2,6-difluorobenzamide]
- inhibitory activity against RET G810R relative to that of selpercatinib (LOXO-292): ≥ 10 times
- IC50 [1]: 2.8 nM

SMILES: CCOc1cc(-c2ccc(N3CC[C@H](NS(=O)(=O)c4c(F)cccc4F)[C@H](O)C3)nc2)c2c3cn[nH]c3nn2c1 [Compound 269, N-((3R,4S)-1-(5-(6-ethoxy-1H-pyrazolo[3′,4′:3,4]pyrazolo[1,5-α]pyridin-4-yl)pyridin-2-yl)-3-hydroxypiperidin-4-yl)-2,6-difluorobenzenesulfonamide]
- inhibitory activity against RET G810R relative to that of selpercatinib (LOXO-292): ≥ 10 times
- IC50 [1]: 6.2 nM

SMILES: CCOc1cc(-c2ccc(N3CC[C@H](NC(=O)c4cc(F)ccc4F)[C@H](O)C3)nc2)c2c3cn[nH]c3nn2c1 [Compound 273, N-((3R,4S)-1-(5-(6-ethoxy-1H-pyrazolo[3′,4′:3,4]pyrazolo[1,5-α]pyridin-4-yl)pyridin-2-yl)-3-hydroxypiperidin-4-yl)-2,5-difluorobenzamide]
- inhibitory activity against RET G810R relative to that of selpercatinib (LOXO-292): ≥ 10 times
- IC50 [1]: 1.8 nM

SMILES: CCOc1cc(-c2ccc(N3CC[C@H](NC(=O)c4c(F)ccc(F)c4F)[C@H](O)C3)nc2)c2c3cn[nH]c3nn2c1 [Compound 274, N-((3R,4S)-1-(5-(6-ethoxy-1H-pyrazolo[3′,4′:3,4]pyrazolo[1,5-α]pyridin-4-yl)pyridin-2-yl)-3-hydroxypiperidin-4-yl)-2,3,6-trifluorobenzamide]
- inhibitory activity against RET G810R relative to that of selpercatinib (LOXO-292): ≥ 10 times
- IC50 [1]: 1.3 nM

SMILES: CCOc1cc(-c2ccc(N3CC[C@H](NC(=O)c4c(F)cccc4Cl)[C@H](O)C3)nc2)c2c3cn[nH]c3nn2c1 [Compound 275, N-((3R,4S)-1-(5-(6-ethoxy-1H-pyrazolo[3′,4′:3,4]pyrazolo[1,5-α]pyridin-4-yl)pyridin-2-yl)-3-hydroxypiperidin-4-yl)-2-chloro-6-fluorobenzamide]
- inhibitory activity against RET G810R relative to that of selpercatinib (LOXO-292): ≥ 10 times
- IC50 [1]: 0.8 nM

SMILES: CCOc1cc(-c2ccc(N3CC[C@H](NC(=O)c4cc(F)ccc4Cl)[C@H](O)C3)nc2)c2c3cn[nH]c3nn2c1 [Compound 276, 2-chloro-N-((3R,4S)-1-(5-(6-ethoxy-1H-pyrazolo[3′,4′:3,4]pyrazolo[1,5-α]pyridin-4-yl)pyridin-2-yl)-3-hydroxypiperidin-4-yl)-5-fluorobenzamide]
- inhibitory activity against RET G810R relative to that of selpercatinib (LOXO-292): ≥ 10 times
- IC50 [1]: 0.7 nM

SMILES: CCOc1cc(-c2ccc(N3CC[C@H](NC(=O)c4cc(F)ccc4C)[C@H](O)C3)nc2)c2c3cn[nH]c3nn2c1 [Compound 277, N-((3R,4S)-1-(5-(6-ethoxy-1H-pyrazolo[3′,4′:3,4]pyrazolo[1,5-α]pyridin-4-yl)pyridin-2-yl)-3-hydroxypiperidin-4-yl)-5-fluoro-2-methylbenzamide]
- inhibitory activity against RET G810R relative to that of selpercatinib (LOXO-292): ≥ 10 times
- IC50 [1]: 1.2 nM

SMILES: CCOc1cc(-c2ccc(N3CC[C@H](NC(=O)c4c(C)cccc4Cl)[C@H](O)C3)nc2)c2c3cn[nH]c3nn2c1 [Compound 278, 2-chloro-N-((3R,4S)-1-(5-(6-ethoxy-1H-pyrazolo[3′,4′:3,4]pyrazolo[1,5-α]pyridin-4-yl)pyridin-2-yl)-3-hydroxypiperidin-4-yl)-6-methylbenzamide]
- inhibitory activity against RET G810R relative to that of selpercatinib (LOXO-292): ≥ 10 times
- IC50 [1]: 0.9 nM

SMILES: CCOc1cc(-c2ccc(N3CC[C@H](NC(=O)c4ccccc4C(F)(F)F)[C@H](O)C3)nc2)c2c3cn[nH]c3nn2c1 [Compound 279, N-((3R,4S)-1-(5-(6-ethoxy-1H-pyrazolo[3′,4′:3,4]pyrazolo[1,5-α]pyridin-4-yl)pyridin-2-yl)-3-hydroxypiperidin-4-yl)-2-(trifluoromethyl)benzamide]
- inhibitory activity against RET G810R relative to that of selpercatinib (LOXO-292): ≥ 10 times
- IC50 [1]: 2.2 nM

SMILES: CCOc1cc(-c2ccc(N3CC[C@H](NC(=O)c4ccccc4C#N)[C@H](O)C3)nc2)c2c3cn[nH]c3nn2c1 [Compound 280, 2-cyano-N-((3R,4S)-1-(5-(6-ethoxy-1H-pyrazolo[3′,4′:3,4]pyrazolo[1,5-α]pyridin-4-yl)pyridin-2-yl)-3-hydroxypiperidin-4-yl)benzamide]
- inhibitory activity against RET G810R relative to that of selpercatinib (LOXO-292): ≥ 10 times
- IC50 [1]: 2.1 nM

SMILES: CCOc1cc(-c2ccc(N3CC[C@H](NC(=O)C4(C(F)(F)F)CCC4)[C@H](O)C3)nc2)c2c3cn[nH]c3nn2c1 [Compound 281, N-((3R,4S)-1-(5-(6-ethoxy-1H-pyrazolo[3′,4′:3,4]pyrazolo[1,5-α]pyridin-4-yl)pyridin-2-yl)-3-hydroxypiperidin-4-yl)-1-(trifluoromethyl)cyclobutane-1-carboxamide]
- inhibitory activity against RET G810R relative to that of selpercatinib (LOXO-292): ≥ 10 times
- IC50 [1]: 1.5 nM

SMILES: CCOc1cc(-c2ccc(N3CC[C@H](NC(=O)C4(F)CC4)[C@H](O)C3)nc2)c2c3cn[nH]c3nn2c1 [Compound 282, N-((3R,4S)-1-(5-(6-ethoxy-1H-pyrazolo[3′,4′:3,4]pyrazolo[1,5-α]pyridin-4-yl)pyridin-2-yl)-3-hydroxypiperidin-4-yl)-1-fluorocyclopropane-1-carboxamide]
- inhibitory activity against RET G810R relative to that of selpercatinib (LOXO-292): ≥ 10 times
- IC50 [1]: 3.5 nM

SMILES: CCOc1cc(-c2ccc(N3CC[C@H](NC(=O)C(C)C(C)C)[C@H](O)C3)nc2)c2c3cn[nH]c3nn2c1 (stereo partly drawn) [Compound 283, N-((3R,4S)-1-(5-(6-ethoxy-1H-pyrazolo[3′,4′:3,4]pyrazolo[1,5-α]pyridin-4-yl)pyridin-2-yl)-3-hydroxypiperidin-4-yl)-2,3-dimethylbutanamide]
- IC50 [1]: 9.9 nM

SMILES: CCOc1cc(-c2ccc(N3CC[C@H](NC(=O)c4ncccc4C(F)(F)F)[C@H](O)C3)nc2)c2c3cn[nH]c3nn2c1 [Compound 284, N-((3R,4S)-1-(5-(6-ethoxy-1H-pyrazolo[3′,4′:3,4]pyrazolo[1,5-α]pyridin-4-yl)pyridin-2-yl)-3-hydroxypiperidin-4-yl)-3-(trifluoromethyl)picolinamide]
- IC50 [1]: 4.2 nM

SMILES: CCOc1cc(-c2ccc(N3CC[C@H](NC(=O)c4ncccc4F)[C@H](O)C3)nc2)c2c3cn[nH]c3nn2c1 [Compound 286, N-((3R,4S)-1-(5-(6-ethoxy-1H-pyrazolo[3′,4′:3,4]pyrazolo[1,5-α]pyridin-4-yl)pyridin-2-yl)piperidin-3-hydroxypiperidin-4-yl)-3-fluoropicolinamide]
- IC50 [1]: 10.3 nM

SMILES: CCOc1cc(-c2ccc(N3CCC(CO)(NC(=O)c4cc(F)ccc4F)CC3)nc2)c2c3cn[nH]c3nn2c1 [Compound 291, N-(1-(5-(6-ethoxy-1H-pyrazolo[3′,4′:3,4]pyrazolo[1,5-α]pyridin-4-yl)pyridin-2-yl)-4-(hydroxymethyl)piperidin-4-yl)-2,5-difluorobenzamide]
- inhibitory activity against RET G810R relative to that of selpercatinib (LOXO-292): ≥ 10 times
- IC50 [1]: 1.6 nM

SMILES: O=C(N[C@H]1CCN(c2ccc(-c3cc(OCC(F)F)cn4nc5[nH]ncc5c34)cn2)C[C@H]1O)c1c(F)cccc1Cl [Compound 292, N-((3R,4S)-1-(5-(6-(2,2-difluoroethoxy)-1H-pyrazolo[3′,4′:3,4]pyrazolo[1,5-α]pyridin-4-yl)pyridin-2-yl)piperidin-3-hydroxypiperidin-4-yl)-2-chloro-6-fluorobenzamide]
- inhibitory activity against RET G810R relative to that of selpercatinib (LOXO-292): ≥ 10 times
- IC50 [1]: 1.8 nM

SMILES: O=C(N[C@H]1CCN(c2ccc(-c3cc(OCC(F)F)cn4nc5[nH]ncc5c34)cn2)C[C@H]1O)c1cc(F)ccc1Cl [Compound 293, N-((3R,4S)-1-(5-(6-(2,2-difluoroethoxy)-1H-pyrazolo[3′,4′:3,4]pyrazolo[1,5-α]pyridin-4-yl)pyridin-2-yl)piperidin-3-hydroxypiperidin-4-yl)-2-chloro-5-fluorobenzamide]
- inhibitory activity against RET G810R relative to that of selpercatinib (LOXO-292): ≥ 10 times
- IC50 [1]: 1.6 nM

SMILES: CCOc1cc(-c2ccc(N3CC[C@H](NC(=O)c4c(F)cccc4F)[C@@H](O)C3)nc2)c2c3cn[nH]c3nn2c1 [Compound 294, N-((3S,4S)-1-(5-(6-ethoxy-1H-pyrazolo[3′,4′:3,4]pyrazolo[1,5-α]pyridin-4-yl)pyridin-2-yl)-3-hydroxypiperidin-4-yl)-2,6-difluorobenzamide]
- IC50 [1]: 4.1 nM

SMILES: O=C(N[C@H]1CCN(c2ccc(-c3cc(OCCF)cn4nc5[nH]ncc5c34)cn2)C[C@@H]1O)c1c(F)cccc1F [Compound 295, N-((3S,4S)-1-(5-(6-(2-fluoroethoxy)-1H-pyrazolo[3′,4′:3,4]pyrazolo[1,5-α]pyridin-4-yl)pyridin-2-yl)-3-hydroxypiperidin-4-yl)-2,6-difluorobenzamide]
- inhibitory activity against RET G810R relative to that of selpercatinib (LOXO-292): ≥ 10 times
- IC50 [1]: 2.1 nM

SMILES: O=C(N[C@H]1CCN(c2ccc(-c3cc(OCC(F)F)cn4nc5[nH]ncc5c34)cn2)C[C@@H]1O)c1c(F)cccc1F [Compound 296, N-((3S,4S)-1-(5-(6-(2,2-difluoroethoxy)-1H-pyrazolo[3′,4′:3,4]pyrazolo[1,5-α]pyridin-4-yl)pyridin-2-yl)-3-hydroxypiperidin-4-yl)-2,6-difluorobenzamide]
- inhibitory activity against RET G810R relative to that of selpercatinib (LOXO-292): ≥ 10 times
- IC50 [1]: 2.1 nM

SMILES: CCOc1cc(-c2ccc(N3CC4CC(C3)N4Cc3ccc(OC)nc3)nc2)c2c3cc[nH]c3nn2c1 [Compound 297, 6-ethoxy-4-(6-(6-((6-methoxypyridin-3-yl)methyl)-3,6-diazabicyclo[3.1.1]heptan-3-yl)pyridin-3-yl)-1H-pyrrolo[2′,3′:3,4]pyrazolo[1,5-α]pyridine]
- IC50: 9.6 nM

— patent US20240174674A1, “NITROGEN-CONTAINING POLYCYCLIC FUSED RING COMPOUND, PHARMACEUTICAL COMPOSITION THEREOF, PREPARATION METHOD THEREFOR, AND USE THEREOF” (APPLIED PHARMACEUTICAL SCIENCE, INC., priority 2021, published 2024)
